# Results reported in ChEMBL document CHEMBL4261509, “Insight into the complete substrate-binding pocket of ThiT by chemical and genetic mutations” (Medchemcomm, 2017).
# Experiments:
# [1] = target: T1, Thiamine transporter ThiT (Lactococcus lactis subsp. cremoris (strain MG1363), UniProt A2RI47); experiment: Binding affinity to wild-type Lactococcus lactis MG1363 N-terminal His8-tagged ThiT expressed in Lactococcus lactis NZ9000 by isothermal calorimetric titration method
# T1 sequence (A2RI47 whole entry): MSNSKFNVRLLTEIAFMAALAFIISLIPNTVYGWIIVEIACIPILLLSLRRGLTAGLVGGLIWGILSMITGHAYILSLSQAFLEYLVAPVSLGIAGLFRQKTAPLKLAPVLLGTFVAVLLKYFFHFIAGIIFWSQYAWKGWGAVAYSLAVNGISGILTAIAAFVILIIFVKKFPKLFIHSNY
# [2] = target: T1, Thiamine transporter ThiT; experiment: Binding affinity to wild-type Lactococcus lactis MG1363 N-terminal His8-tagged ThiT expressed in Lactococcus lactis NZ9000 incubated for 10 secs measured over 15 secs by fluorescence spectrophotometric method
# [3] = target: Thiamine transporter ThiT (Lactococcus lactis subsp. cremoris (strain MG1363), UniProt A2RI47, E84D); experiment: Binding affinity to Lactococcus lactis MG1363 N-terminal His8-tagged ThiT Glu84Asp mutant expressed in Lactococcus lactis NZ9000 by isothermal calorimetric titration method
# Chain of Thiamine transporter ThiT (Lactococcus lactis subsp. cremoris (strain MG1363), UniProt A2RI47, E84D) (A2RI47 whole entry E84D): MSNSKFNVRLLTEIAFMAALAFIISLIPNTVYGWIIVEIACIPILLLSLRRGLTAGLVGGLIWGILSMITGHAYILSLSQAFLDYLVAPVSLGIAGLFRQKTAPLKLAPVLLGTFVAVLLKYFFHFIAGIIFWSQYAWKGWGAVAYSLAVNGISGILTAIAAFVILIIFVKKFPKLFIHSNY
# [4] = target: Thiamine transporter ThiT (Lactococcus lactis subsp. cremoris (strain MG1363), UniProt A2RI47, H125N); experiment: Binding affinity to Lactococcus lactis MG1363 N-terminal His8-tagged ThiT His125Asn mutant expressed in Lactococcus lactis NZ9000 by isothermal calorimetric titration method
# Chain of Thiamine transporter ThiT (Lactococcus lactis subsp. cremoris (strain MG1363), UniProt A2RI47, H125N) (A2RI47 whole entry H125N): as the sequence (A2RI47 whole entry E84D) above, with D84E, H125N counted along it
# [5] = target: Thiamine transporter ThiT (Lactococcus lactis subsp. cremoris (strain MG1363), UniProt A2RI47, H125A); experiment: Binding affinity to Lactococcus lactis MG1363 N-terminal His8-tagged ThiT His125Ala mutant expressed in Lactococcus lactis NZ9000 by isothermal calorimetric titration method
# Chain of Thiamine transporter ThiT (Lactococcus lactis subsp. cremoris (strain MG1363), UniProt A2RI47, H125A) (A2RI47 whole entry H125A): as the sequence (A2RI47 whole entry E84D) above, with D84E, H125A counted along it
# [6] = target: Thiamine transporter ThiT (Lactococcus lactis subsp. cremoris (strain MG1363), UniProt A2RI47, W34A); experiment: Binding affinity to Lactococcus lactis MG1363 N-terminal His8-tagged ThiT Trp34Ala mutant expressed in Lactococcus lactis NZ9000 incubated for 5 secs measured over 20 secs by fluorescence spectrophotometric method
# Chain of Thiamine transporter ThiT (Lactococcus lactis subsp. cremoris (strain MG1363), UniProt A2RI47, W34A) (A2RI47 whole entry W34A): as the sequence (A2RI47 whole entry E84D) above, with W34A, D84E counted along it
# [7] = target: Thiamine transporter ThiT (Lactococcus lactis subsp. cremoris (strain MG1363), UniProt A2RI47, E84A); experiment: Binding affinity to Lactococcus lactis MG1363 N-terminal His8-tagged ThiT Glu84Ala mutant expressed in Lactococcus lactis NZ9000 by isothermal calorimetric titration method
# Chain of Thiamine transporter ThiT (Lactococcus lactis subsp. cremoris (strain MG1363), UniProt A2RI47, E84A) (A2RI47 whole entry E84A): as the sequence (A2RI47 whole entry E84D) above, with D84A counted along it
# [8] = target: Thiamine transporter ThiT (Lactococcus lactis subsp. cremoris (strain MG1363), UniProt A2RI47, E84Q); experiment: Binding affinity to Lactococcus lactis MG1363 N-terminal His8-tagged ThiT Glu84Gln mutant expressed in Lactococcus lactis NZ9000 by isothermal calorimetric titration method
# Chain of Thiamine transporter ThiT (Lactococcus lactis subsp. cremoris (strain MG1363), UniProt A2RI47, E84Q) (A2RI47 whole entry E84Q): as the sequence (A2RI47 whole entry E84D) above, with D84Q counted along it
Structure (SMILES),Kd [2] [nM],further results
Cc1ncc(Cn2cc(CCO)nn2)c(N)n1,–,Kd [1]: 28600 nM
Cc1ncc(Cc2csc(CCS[C@@H]3O[C@H](CO)[C@@H](O)[C@H](O)[C@H]3O)c2C)c(N)n1,183,–
Cc1ncc(Cc2csc(CCOC(=O)c3c[nH]c4ccccc34)c2C)c(N)n1,20.1,–
Cc1ncc(Cc2csc(COCc3ccccc3)c2C)c(N)n1,40.3,–
Cc1ncc(Cc2cc(CO)cc(C(F)(F)F)c2)c(N)n1,–,Kd [1]: 2300 nM
Cc1ncc(C[n+]2csc(CCO[P@](=O)(O)OP(=O)(O)O)c2C)c(N)n1 [COCARBOXYLASE],1.6,–
Cc1ncc(Cc2cccc(CCO)c2)c(N)n1,266,–
Cc1ncc(C[n+]2cccc(CCO)c2C)c(N)n1,0.18,–
Cc1ncc(Cc2csc(CNCC34CC5CC(CC(C5)C3)C4)c2C)c(N)n1,–,Kd [1]: 49800 nM
Cc1cc(CO)cc(Cc2cnc(C)nc2N)c1,–,Kd [1]: 1990 nM
Cc1ncc(C[n+]2csc(CCO)c2C)c(N)n1 [THIAMINE ION],0.122,Kd [3]: 2.21 nM; Kd [4]: 13.6 nM; Kd [5]: 14.9 nM; Kd [6]: 0.35 nM; Kd [7]: 3650 nM; Kd [8]: 13600 nM
Cc1ncc(Cc2cccc(CO)c2)c(N)n1,528,–
Cc1ncc(Cc2csc(COP(=O)(O)OP(=O)(O)O)c2C)c(N)n1,209,–
Cc1ncc(Cc2csc(CNCc3ccccn3)c2C)c(N)n1,96.7,–
Cc1ncc(Cc2csc(CNCC(c3ccccc3)c3ccccc3)c2C)c(N)n1,168,–
